The target of the test is canine TRPM8 (Canis lupus familiaris, UniProt Q1A7N1). The test can be described thus: In Vitro Canine TRPM8 Functional Assay (Ca2+ fluorescence, icilin activation). The test is classed as cell-based. Particulars: for IC50: HEK293 cells stably expressing canine TRPM8, icilin activation, eight-point dose-response, read-out: IC50; for inhibition at 0.2 µM / % Inh @ 0.2 (μM): compound at 0.2 μM, canine TRPM8, icilin activation; for inhibition at 0.2 µM: read-out: % Inh @ 0.2. Put shortly: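 Canine TRPM8 stably expressed in HEK293; compound added 5 min before icilin challenge (~80% max response), with fluorescent Ca2+ signal tracked throughout.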
Chain of canine TRPM8 (Q1A7N1 1-1104): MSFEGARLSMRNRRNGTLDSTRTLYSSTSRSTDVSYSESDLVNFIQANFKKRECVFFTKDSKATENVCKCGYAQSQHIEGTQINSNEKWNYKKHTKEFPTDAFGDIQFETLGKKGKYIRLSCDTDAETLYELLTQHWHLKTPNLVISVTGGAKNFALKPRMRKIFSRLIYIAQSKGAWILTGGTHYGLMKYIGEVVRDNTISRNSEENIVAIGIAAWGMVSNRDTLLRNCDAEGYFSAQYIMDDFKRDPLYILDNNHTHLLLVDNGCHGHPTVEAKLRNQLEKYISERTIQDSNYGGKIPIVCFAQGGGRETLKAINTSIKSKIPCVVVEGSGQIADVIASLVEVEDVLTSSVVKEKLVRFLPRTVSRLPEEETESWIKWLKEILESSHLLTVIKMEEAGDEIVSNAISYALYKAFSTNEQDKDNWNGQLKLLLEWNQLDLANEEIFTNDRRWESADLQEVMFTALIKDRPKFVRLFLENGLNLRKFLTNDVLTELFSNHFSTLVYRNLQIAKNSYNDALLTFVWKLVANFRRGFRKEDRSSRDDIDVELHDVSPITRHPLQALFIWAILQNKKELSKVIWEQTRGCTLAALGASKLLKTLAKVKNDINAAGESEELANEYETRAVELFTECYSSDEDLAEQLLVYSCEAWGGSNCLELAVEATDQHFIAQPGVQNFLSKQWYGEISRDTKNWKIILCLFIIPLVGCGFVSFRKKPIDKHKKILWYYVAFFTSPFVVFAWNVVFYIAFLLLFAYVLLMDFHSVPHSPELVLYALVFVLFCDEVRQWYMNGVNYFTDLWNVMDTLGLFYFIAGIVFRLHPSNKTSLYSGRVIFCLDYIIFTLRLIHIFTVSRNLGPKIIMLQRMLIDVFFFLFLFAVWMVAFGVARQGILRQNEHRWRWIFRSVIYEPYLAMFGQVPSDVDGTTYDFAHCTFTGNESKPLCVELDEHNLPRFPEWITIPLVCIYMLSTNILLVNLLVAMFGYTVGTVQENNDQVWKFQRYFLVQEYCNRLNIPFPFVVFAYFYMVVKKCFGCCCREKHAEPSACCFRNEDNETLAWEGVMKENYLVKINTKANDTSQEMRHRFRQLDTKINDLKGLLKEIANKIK

The term IC50 denotes the concentration needed to halve the response being measured.

With `O=c1[nH]c(-c2ccc(S(=O)(=O)N(Cc3ccc(F)c(C(F)(F)F)c3)c3sc4ccccc4c3Cl)cc2)no1` [Compound 512, N-(3-Chloro-benzo[b]thiophen-2-yl)-N-(4-fluoro-3-trifluoromethyl-benzyl)-4-(5-oxo-4,5-dihydro-[1,2,4]oxadiazol-3-yl)-benzenesulfonamide], the IC50 is 4 nM and the inhibition at 0.2 µM turned out to be 102%.
For `O=c1[nH]c(-c2ccc(S(=O)(=O)N(CCCC(F)(F)F)c3cc4ccccc4s3)cc2)no1` [Compound 513, N-(Benzo[b]thiophen-2-yl)-N-(4,4,4-trifluoro-butyl)-4-(5-oxo-4,5-dihydro-[1,2,4]oxadiazol-3-yl)-benzenesulfonamide] the same measures were 21 nM and 101%.
In the same order, the values of `O=c1[nH]c(-c2ccc(S(=O)(=O)N(CCCC(F)(F)F)c3sc4ccccc4c3Br)cc2)no1` [Compound 514, N-(3-Bromo-benzo[b]thiophen-2-yl)-N-(4,4,4-trifluoro-butyl)-4-(5-oxo-4,5-dihydro-[1,2,4]oxadiazol-3-yl)-benzenesulfonamide] are 46 nM and 100%.
In the same order, the values of `CCCCN(c1sc2ccccc2c1C(C)(C)O)S(=O)(=O)c1ccc(C(=O)OC)cc1` [Compound 516, N-(Butyl)-N-(3-(1-hydroxy-1-methyl-ethyl)-benzo[b]thiophen-2-yl)-4-carbomethoxy-benzenesulfonamide] are 19 nM and 102%.
With `Cc1c(N(Cc2cc(F)c(F)c(F)c2)S(=O)(=O)c2ccc(C(=O)O)cc2)sc2ccccc12` [Compound 517, N-(3-Methyl-benzo[b]thiophen-2-yl)-N-(3,4,5-trifluoro-benzyl)-4-carboxy-benzenesulfonamide], the IC50 was determined as 2 nM and the inhibition at 0.2 µM is 102%.
For `Cc1c(N(Cc2ccc(C(F)(F)F)cc2)S(=O)(=O)c2ccc(C(=O)O)cc2)sc2ccccc12` [Compound 518, N-(3-Methyl-benzo[b]thiophen-2-yl)-N-(4-trifluoromethyl-benzyl)-4-carboxy-benzenesulfonamide] the same measures were 0.7 nM and 101%.
In the case of `Cc1c(N(Cc2cc(C(F)(F)F)ccc2F)S(=O)(=O)c2ccc(C(=O)O)cc2)sc2ccccc12` [Compound 519, N-(3-Methyl-benzo[b]thiophen-2-yl)-N-(2-fluoro-5-trifluoromethyl-benzyl)-4-carboxy-benzenesulfonamide], the IC50 amounted to 6 nM and the inhibition at 0.2 µM was found to be 102%.
Consider `Cc1c(N(Cc2cc(Cl)ccc2Cl)S(=O)(=O)c2ccc(C(=O)O)cc2)sc2ccccc12` [Compound 520, N-(3-Methyl-benzo[b]thiophen-2-yl)-N-(2,5-dichloro-benzyl)-4-carboxy-benzenesulfonamide], for which the inhibition at 0.2 µM was 102%.
As to `Cc1c(N(Cc2ccc(Cl)c(F)c2)S(=O)(=O)c2ccc(C(=O)O)cc2)sc2ccccc12` [Compound 521, N-(3-Methyl-benzo[b]thiophen-2-yl)-N-(4-chloro-3-fluoro-benzyl)-4-carboxy-benzenesulfonamide], the IC50 was 2 nM and the inhibition at 0.2 µM was found to be 101%.
`Cc1c(N(Cc2ccc(F)cc2C(F)(F)F)S(=O)(=O)c2ccc(C(=O)O)cc2)sc2ccccc12` [Compound 522, N-(3-Methyl-benzo[b]thiophen-2-yl)-N-(4-fluoro-2-trifluoromethyl-benzyl)-4-carboxy-benzenesulfonamide]: the IC50 was 4 nM and the inhibition at 0.2 µM amounted to 101%.
Regarding `Cc1c(N(Cc2ccc3c(c2)OCO3)S(=O)(=O)c2ccc(C(=O)O)cc2)sc2ccccc12` [Compound 523, N-(3-Methyl-benzo[b]thiophen-2-yl)-N—(C-benzo[1,3]dioxol-5-yl-methy)-4-carboxy-benzenesulfonamide], the half-maximal inhibitory concentration (IC50) was 2 nM and the “% Inh @ 0.2 (μM)” value amounted to 101%.
As to `COc1ccc(CN(c2sc3ccccc3c2C)S(=O)(=O)c2ccc(C(=O)O)cc2)cc1OC` [Compound 525, N-(3-Methyl-benzo[b]thiophen-2-yl)-N-(3,4-dimethoxy-benzyl)-4-carboxy-benzenesulfonamide], the inhibition at 0.2 µM came to 101%.
As for `Cc1c(N(Cc2ccc(SC(F)(F)F)cc2)S(=O)(=O)c2ccc(C(=O)O)cc2)sc2ccccc12` [Compound 526, N-(3-Methyl-benzo[b]thiophen-2-yl)-N-(4-trifluoromethylsulfanyl-benzyl)-4-carboxy-benzenesulfonamide], the IC50 came out at 1 nM and the inhibition at 0.2 µM came to 102%.
For `Cc1c(N(Cc2ccc(F)c(C(F)(F)F)c2)S(=O)(=O)c2cc(C(=O)O)cs2)sc2ccccc12` [Compound 527, N-(3-Methyl-benzo[b]thiophen-2-yl)-N-(4-fluoro-3-trifluoromethyl-benzyl)-4-carboxy-thien-2-ylsulfonamide] the same measures were 5 nM and 101%.
In the same order, the values of `Cc1cc(C(=O)O)sc1S(=O)(=O)N(Cc1ccc(F)c(C(F)(F)F)c1)c1sc2ccccc2c1C` [Compound 528, N-(3-Methyl-benzo[b]thiophen-2-yl)-N-(4-fluoro-3-trifluoromethyl-benzyl)-(5-carboxy-3-methyl-thien-2-yl)-sulfonamide] are 16 nM and 102%.
As to `Cc1c(N(Cc2ccc(F)c(C(F)(F)F)c2)S(=O)(=O)c2ccc(C(=O)O)o2)sc2ccccc12` [Compound 529, N-(3-Methyl-benzo[b]thiophen-2-yl)-N-(4-fluoro-3-trifluoromethyl-benzyl)-5-carboxy-furan-2-yl-sulfonamide], the inhibition at 0.2 µM was determined as 35%.
For the compound `COC(=O)c1ccc(S(=O)(=O)N(CCCC(F)(F)F)c2sc3ccccc3c2Cl)cc1` [Compound 530, N-(3-Chloro-benzo[b]thiophen-2-yl)-N-(4,4,4-trifluoro-butyl)-4-carbomethoxy-benzenesulfonamide], the inhibition at 0.2 µM is 54%.
`COC(=O)c1ccc(S(=O)(=O)N(CCCCC(F)(F)F)c2sc3ccccc3c2Cl)cc1` [Compound 531, N-(3-Chloro-benzo[b]thiophen-2-yl)-N-(5,5,5-trifluoro-pentyl)-4-carbomethoxy-benzenesulfonamide]: the 50% inhibitory concentration (IC50) is 46 nM and the inhibition at 0.2 µM was determined as 88%.
As to `CCCCN(c1cc2ccccc2s1)S(=O)(=O)NC` [Compound 532, N-(Benzo[b]thiophen-2-yl)-N-(butyl)-N′-methyl-sulfamide], the inhibition at 0.2 µM stood at 19%.
With `CNS(=O)(=O)N(Cc1ccc(F)c(C(F)(F)F)c1)c1sc2ccccc2c1C` [Compound 533, N-(4-Fluoro-3-trifluoromethyl-benzyl)-N-(3-methylbenzo[b]thiophen-2-yl)-N′-methyl-sulfamide], the IC50 came to 32 nM and the inhibition at 0.2 µM stood at 102%.
On to `CCS(=O)(=O)N(Cc1ccc(F)c(C(F)(F)F)c1)c1sc2ccccc2c1[C@H](C)O` [Compound 534], for which the IC50 stood at 2 nM and the “% Inh @ 0.2 (μM)” value is 102%.
In the same order, the values of `CCS(=O)(=O)N(Cc1ccc(F)c(C(F)(F)F)c1)c1sc2ccccc2c1[C@@H](C)O` [Compound 535] are 1 nM and 102%.
For `CCCCN(C1=C(N(C)C)c2ccccc2S1(=O)=O)S(=O)(=O)c1ccc(C(=O)O)cc1` [Compound 536, N-(Butyl)-N-(3-dimethylamino-1,1-dioxo-1H-benzo[b]thiophen-2-yl)-4-carboxy-benzenesulfonamide], the IC50 was 77 nM and the inhibition at 0.2 µM is 89%.
In the same order, the values of `O=C(O)c1ccc(S(=O)(=O)N(CCCC(F)(F)F)c2sc3ccccc3c2Cl)cc1` [Compound 537, N-(3-Chloro-benzo[b]thiophen-2-yl)-N-(4,4,4-trifluoro-butyl)-4-carboxy-benzenesulfonamide] are 8.2 nM and 105%.
For `O=C(O)c1ccc(S(=O)(=O)N(CCCCC(F)(F)F)c2sc3ccccc3c2Cl)cc1` [Compound 538, N-(3-Chloro-benzo[b]thiophen-2-yl)-N-(5,5,5-trifluoro-pentyl)-4-carboxy-benzenesulfonamide] the same measures were 4.9 nM and 105%.
With `CCCCN(c1sc2ccccc2c1C)S(=O)(=O)c1ccc(-c2nnn[nH]2)cc1` [Compound 539, N-(3-Methyl-benzo[b]thiophen-2-yl)-N-(butyl)-4-(1H-tetrazol-5-yl)-benzenesulfonamide], the concentration for half-maximal inhibition (IC50) worked out at 6.7 nM and the inhibition at 0.2 µM turned out to be 105%.
Consider `CCCCN(c1sc2ccccc2c1C)S(=O)(=O)c1ccc(C2=NOS(=O)N2)cc1` (stereo not shown) [Compound 540, N-(3-Methyl-benzo[b]thiophen-2-yl)-N-(butyl)-4-(3H-[1,2,3,5]oxathiadiazole-2-oxide)-benzenesulfonamide], for which the IC50 was 12.2 nM and the “% Inh @ 0.2 (μM)” value is reported as 104.6%.
With `CCCCN(c1sc2ccccc2c1C)S(=O)(=O)c1ccc(-c2noc(=O)[nH]2)cc1` [Compound 541, N-(3-Methyl-benzo[b]thiophen-2-yl)-N-(butyl)-4-(5-oxo-4,5-dihydro-[1,2,4]oxadiazol-3-yl)-benzenesulfonamide], the IC50 was determined as 10.8 nM and the inhibition at 0.2 µM was determined as 105%.
In the case of `Cc1c(N(Cc2ccc(F)c(C(F)(F)F)c2)S(=O)(=O)c2ccc(-c3nnn[nH]3)cc2)sc2ccccc12` [Compound 542, N-(3-Methyl-benzo[b]thiophen-2-yl)-N-(4-fluoro-3-trifluoromethyl-benzyl)-4-(1H-tetrazol-5-yl)-benzenesulfonamide], the IC50 is 2.3 nM and the inhibition at 0.2 µM is 105%.
On to `Cc1c(N(Cc2ccc(F)c(C(F)(F)F)c2)S(=O)(=O)c2ccc(C3=NOS(=O)N3)cc2)sc2ccccc12` (stereo not shown) [Compound 543, N-(3-Methyl-benzo[b]thiophen-2-yl)-N-(4-fluoro-3-trifluoromethyl-benzyl)-4-(3H-[1,2,3,5]oxathiadiazole-2-oxide)-benzenesulfonamide], for which the IC50 was found to be 7.2 nM and the “% Inh @ 0.2 (μM)” value is 104.46%.

These data come from patent US9434711B2 (Janssen Pharmaceutica, NV, priority 2007, dated 2016).
